In PubChem BioAssay (NCI):
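Values below derive from 48-hour exposures of cells grown in 96-well plates, with endpoints linearly interpolated between the two concentrations bracketing the appropriate inhibition level. GI50: concentration for 50% inhibition of growth. The concentration for full growth arrest is given as TGI.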

Tests used:
Assay in all cases: growth of human tumour cells (NCI), 48 h
786-0 renal = system: 786-0 renal
A498 renal = system: A498 renal
A549 NSCLC = system: A549 NSCLC
ACHN renal = system: ACHN renal
BT-549 breast = system: BT-549 breast
CAKI-1 renal = system: CAKI-1 renal
CCRF-CEM leukemia = system: CCRF-CEM leukemia
COLO 205 colon = system: COLO 205 colon
DU-145 prostate = system: DU-145 prostate
EKVX NSCLC = system: EKVX NSCLC
HCC-2998 colon = system: HCC-2998 colon
HCT-116 colon = system: HCT-116 colon
HCT-15 colon = system: HCT-15 colon
HL-60(TB) leukemia = system: HL-60(TB) leukemia
HOP-62 NSCLC = system: HOP-62 NSCLC
HOP-92 NSCLC = system: HOP-92 NSCLC
HS 578T breast = system: HS 578T breast
HT29 colon = system: HT29 colon
IGROV1 ovarian = system: IGROV1 ovarian
K-562 leukemia = system: K-562 leukemia
KM12 colon = system: KM12 colon
LOX IMVI melanoma = system: LOX IMVI melanoma
M14 melanoma = system: M14 melanoma
MALME-3M melanoma = system: MALME-3M melanoma
MCF7 breast = system: MCF7 breast
MDA-MB-231 breast = system: MDA-MB-231 breast
MOLT-4 leukemia = system: MOLT-4 leukemia
NCI-H226 lung = system: NCI-H226 lung
NCI-H23 lung = system: NCI-H23 lung
NCI-H460 lung = system: NCI-H460 lung
NCI-H522 lung = system: NCI-H522 lung
NCI/ADR-RES ovarian = system: NCI/ADR-RES ovarian
OVCAR-3 ovarian = system: OVCAR-3 ovarian
OVCAR-4 ovarian = system: OVCAR-4 ovarian
OVCAR-8 ovarian = system: OVCAR-8 ovarian
PC-3 prostate = system: PC-3 prostate
RPMI-8226 leukemia = system: RPMI-8226 leukemia
RXF 393 renal = system: RXF 393 renal
SF-268 CNS = system: SF-268 CNS
SF-295 CNS = system: SF-295 CNS
SF-539 CNS = system: SF-539 CNS
SK-MEL-2 melanoma = system: SK-MEL-2 melanoma
SK-MEL-28 melanoma = system: SK-MEL-28 melanoma
SK-MEL-5 melanoma = system: SK-MEL-5 melanoma
SK-OV-3 ovarian = system: SK-OV-3 ovarian
SN12C renal = system: SN12C renal
SNB-19 CNS = system: SNB-19 CNS
SNB-75 CNS = system: SNB-75 CNS
SR leukemia = system: SR leukemia
SW-620 colon = system: SW-620 colon
T-47D breast = system: T-47D breast
TK-10 renal = system: TK-10 renal
U251 CNS = system: U251 CNS
UO-31 renal = system: UO-31 renal

Cc1ccc2c(c1)ncn2-c1ncnc2c1CC(C)c1ccccc1N2C (stereo not drawn)
GI50 (786-0 renal): 487 nM
TGI (786-0 renal): 14700 nM
GI50 (A498 renal): 56.7 nM
TGI (A498 renal): 17000 nM
GI50 (A549 NSCLC): 248 nM
TGI (A549 NSCLC): 17500 nM
GI50 (ACHN renal): 383 nM
TGI (ACHN renal): 12100 nM
GI50 (BT-549 breast): 314 nM
TGI (BT-549 breast): 8250 nM
GI50 (CAKI-1 renal): 127 nM
TGI (CAKI-1 renal): 13700 nM
GI50 (CCRF-CEM leukemia): 46 nM
TGI (CCRF-CEM leukemia): 10500 nM
GI50 (COLO 205 colon): 198 nM
TGI (COLO 205 colon): 666 nM
GI50 (DU-145 prostate): 244 nM
TGI (DU-145 prostate): 15600 nM
GI50 (EKVX NSCLC): 154 nM
TGI (EKVX NSCLC): 18000 nM
GI50 (HCC-2998 colon): 304 nM
TGI (HCC-2998 colon): 14500 nM
GI50 (HCT-116 colon): 66.9 nM
TGI (HCT-116 colon): 13000 nM
GI50 (HCT-15 colon): 98.4 nM
TGI (HCT-15 colon): 12500 nM
GI50 (HL-60(TB) leukemia): 28.2 nM
TGI (HL-60(TB) leukemia): 78.1 nM
GI50 (HOP-62 NSCLC): 174 nM
TGI (HOP-62 NSCLC): 13600 nM
GI50 (HOP-92 NSCLC): 3770 nM
TGI (HOP-92 NSCLC): 18700 nM
GI50 (HS 578T breast): 104 nM
TGI (HS 578T breast): 51000 nM
GI50 (HT29 colon): 92.2 nM
TGI (HT29 colon): 14500 nM
GI50 (IGROV1 ovarian): 256 nM
TGI (IGROV1 ovarian): 7680 nM
GI50 (K-562 leukemia): 39.9 nM
TGI (K-562 leukemia): 11200 nM
GI50 (KM12 colon): 106 nM
TGI (KM12 colon): 14600 nM
GI50 (LOX IMVI melanoma): 124 nM
TGI (LOX IMVI melanoma): 13000 nM
GI50 (M14 melanoma): 58.7 nM
TGI (M14 melanoma): 14100 nM
GI50 (MALME-3M melanoma): 51.3 nM
TGI (MALME-3M melanoma): 4600 nM
GI50 (MCF7 breast): 36.8 nM
TGI (MCF7 breast): 12500 nM
GI50 (MDA-MB-231 breast): 192 nM
TGI (MDA-MB-231 breast): 16600 nM
GI50 (MOLT-4 leukemia): 60.7 nM
TGI (MOLT-4 leukemia): 4360 nM
GI50 (NCI-H226 lung): 1210 nM
TGI (NCI-H226 lung): 18700 nM
GI50 (NCI-H23 lung): 428 nM
TGI (NCI-H23 lung): 19400 nM
GI50 (NCI-H460 lung): 225 nM
TGI (NCI-H460 lung): 11300 nM
GI50 (NCI-H522 lung): 121 nM
TGI (NCI-H522 lung): 5680 nM
GI50 (NCI/ADR-RES ovarian): 58 nM
TGI (NCI/ADR-RES ovarian): 30400 nM
GI50 (OVCAR-3 ovarian): 38.9 nM
TGI (OVCAR-3 ovarian): 409 nM
GI50 (OVCAR-4 ovarian): 624 nM
TGI (OVCAR-4 ovarian): 24700 nM
GI50 (OVCAR-8 ovarian): 381 nM
TGI (OVCAR-8 ovarian): 22900 nM
GI50 (PC-3 prostate): 56.1 nM
TGI (PC-3 prostate): 17700 nM
GI50 (RPMI-8226 leukemia): 149 nM
TGI (RPMI-8226 leukemia): 1820 nM
GI50 (RXF 393 renal): 57.7 nM
TGI (RXF 393 renal): 16400 nM
GI50 (SF-268 CNS): 209 nM
TGI (SF-268 CNS): 15600 nM
GI50 (SF-295 CNS): 48.6 nM
TGI (SF-295 CNS): 12200 nM
GI50 (SF-539 CNS): 89.6 nM
TGI (SF-539 CNS): 11600 nM
GI50 (SK-MEL-2 melanoma): 1130 nM
TGI (SK-MEL-2 melanoma): 18300 nM
GI50 (SK-MEL-28 melanoma): 1840 nM
TGI (SK-MEL-28 melanoma): 15600 nM
GI50 (SK-MEL-5 melanoma): 138 nM
TGI (SK-MEL-5 melanoma): 1320 nM
GI50 (SK-OV-3 ovarian): 139 nM
TGI (SK-OV-3 ovarian): 17700 nM
GI50 (SN12C renal): 444 nM
TGI (SN12C renal): 15600 nM
GI50 (SNB-19 CNS): 170 nM
TGI (SNB-19 CNS): 20700 nM
GI50 (SNB-75 CNS): 89.2 nM
TGI (SNB-75 CNS): 18100 nM
GI50 (SR leukemia): 36.2 nM
TGI (SR leukemia): 1980 nM
GI50 (SW-620 colon): 43.5 nM
TGI (SW-620 colon): 15900 nM
GI50 (T-47D breast): 2170 nM
TGI (T-47D breast): 8530 nM
GI50 (TK-10 renal): 11600 nM
TGI (TK-10 renal): 24300 nM
GI50 (U251 CNS): 86 nM
TGI (U251 CNS): 13900 nM
GI50 (UO-31 renal): 317 nM
TGI (UO-31 renal): 7110 nM
